Measurements: PubChem BioAssay (NCI)
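Following 48 hours of exposure in 96-well plates, responses at five concentrations were used to interpolate endpoints linearly. At the TGI there is no net growth.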

How the values were obtained:
Assay in all cases: NCI-60 cell line screen, 48 h
[1] = system: 786-0 renal
[2] = system: A498 renal
[3] = system: A549 NSCLC
[4] = system: ACHN renal
[5] = system: BT-549 breast
[6] = system: CAKI-1 renal
[7] = system: CCRF-CEM leukemia
[8] = system: COLO 205 colon
[9] = system: DU-145 prostate
[10] = system: EKVX NSCLC
[11] = system: HCC-2998 colon
[12] = system: HCT-116 colon
[13] = system: HCT-15 colon
[14] = system: HL-60(TB) leukemia
[15] = system: HOP-62 NSCLC
[16] = system: HOP-92 NSCLC
[17] = system: HS 578T breast
[18] = system: HT29 colon
[19] = system: IGROV1 ovarian
[20] = system: K-562 leukemia
[21] = system: KM12 colon
[22] = system: LOX IMVI melanoma
[23] = system: M14 melanoma
[24] = system: MALME-3M melanoma
[25] = system: MCF7 breast
[26] = system: MDA-MB-231 breast
[27] = system: MDA-MB-435
[28] = system: MDA-N
[29] = system: MOLT-4 leukemia
[30] = system: NCI-H226 lung
[31] = system: NCI-H23 lung
[32] = system: NCI-H460 lung
[33] = system: NCI-H522 lung
[34] = system: NCI/ADR-RES ovarian
[35] = system: OVCAR-3 ovarian
[36] = system: OVCAR-4 ovarian
[37] = system: OVCAR-5 ovarian
[38] = system: OVCAR-8 ovarian
[39] = system: PC-3 prostate
[40] = system: RPMI-8226 leukemia
[41] = system: RXF 393 renal
[42] = system: SF-268 CNS
[43] = system: SF-295 CNS
[44] = system: SF-539 CNS
[45] = system: SK-MEL-2 melanoma
[46] = system: SK-MEL-28 melanoma
[47] = system: SK-MEL-5 melanoma
[48] = system: SK-OV-3 ovarian
[49] = system: SN12C renal
[50] = system: SNB-19 CNS
[51] = system: SNB-75 CNS
[52] = system: SR leukemia
[53] = system: SW-620 colon
[54] = system: T-47D breast
[55] = system: TK-10 renal
[56] = system: U251 CNS
[57] = system: UACC-257 melanoma
[58] = system: UACC-62 melanoma
[59] = system: UO-31 renal

## CCOP(=O)(O)C(Nc1ccc(N=Nc2ccccc2)cc1)c1ccc(C(Nc2ccc(N=Nc3ccccc3)cc2)P(=O)(O)OCC)cc1 (stereo unspecified)
[1]
  TGI: 78.5 µM
[2]
  TGI: 64.8 µM
[3]
  TGI: 88.7 µM
[4]
  TGI: > 100 µM
[5]
  TGI: 49.2 µM
[6]
  TGI: > 100 µM
[7]
  TGI: 41.6 µM
[8]
  TGI: 28.8 µM
[9]
  TGI: > 100 µM
[10]
  TGI: 41 µM
[11]
  TGI: 34.3 µM
[12]
  TGI: 39.5 µM
[13]
  TGI: 47.9 µM
[14]
  TGI: 37 µM
[15]
  TGI: 36.3 µM
[16]
  TGI: 95.1 µM
[17]
  TGI: 46.8 µM
[18]
  TGI: 33.8 µM
[19]
  TGI: 47.8 µM
[20]
  TGI: 35.7 µM
[21]
  TGI: 31 µM
[22]
  TGI: 29.6 µM
[23]
  TGI: 29.6 µM
[24]
  TGI: 32.2 µM
[25]
  TGI: > 100 µM
[26]
  TGI: 90.9 µM
[27]
  TGI: 32.4 µM
[28]
  TGI: 40.8 µM
[29]
  TGI: 37.2 µM
[30]
  TGI: 99.2 µM
[31]
  TGI: 64.2 µM
[32]
  TGI: 50.3 µM
[33]
  TGI: 37.6 µM
[34]
  TGI: 73 µM
[35]
  TGI: > 100 µM
[36]
  TGI: > 100 µM
[37]
  TGI: 53.7 µM
[38]
  TGI: 31.4 µM
[39]
  TGI: 35.7 µM
[40]
  TGI: 53.8 µM
[41]
  TGI: 49.3 µM
[42]
  TGI: 42.9 µM
[43]
  TGI: 35 µM
[44]
  TGI: 38.2 µM
[45]
  TGI: 32.8 µM
[46]
  TGI: 33.5 µM
[47]
  TGI: 30.7 µM
[48]
  TGI: 36.8 µM
[49]
  TGI: 46.3 µM
[50]
  TGI: 41.2 µM
[51]
  TGI: 34.5 µM
[52]
  TGI: 42.6 µM
[53]
  TGI: 38.2 µM
[54]
  TGI: 47.1 µM
[55]
  TGI: > 100 µM
[56]
  TGI: 33.5 µM
[57]
  TGI: 70.1 µM
[58]
  TGI: 35 µM
[59]
  TGI: > 100 µM

## C1CSCCCSCCCSCCCSCCCSC1
[1]
  TGI: > 100 µM
[2]
  TGI: > 78.1 µM
[3]
  TGI: > 100 µM
[4]
  TGI: > 100 µM
[5]
  TGI: > 88.5 µM
[6]
  TGI: 48.8 µM
[7]
  TGI: 32.4 µM
[8]
  TGI: 34.5 µM
[9]
  TGI: > 100 µM
[10]
  TGI: > 100 µM
[11]
  TGI: > 100 µM
[12]
  TGI: > 100 µM
[13]
  TGI: > 100 µM
[14]
  TGI: 36.5 µM
[15]
  TGI: > 100 µM
[16]
  TGI: > 93.4 µM
[17]
  TGI: > 100 µM
[18]
  TGI: > 63.2 µM
[19]
  TGI: > 87.1 µM
[20]
  TGI: > 80 µM
[21]
  TGI: > 100 µM
[22]
  TGI: 61.3 µM
[23]
  TGI: > 100 µM
[24]
  TGI: > 100 µM
[25]
  TGI: > 76.7 µM
[26]
  TGI: > 88.4 µM
[27]
  TGI: > 100 µM
[28]
  TGI: > 100 µM
[29]
  TGI: 38.1 µM
[30]
  TGI: > 77.2 µM
[31]
  TGI: > 100 µM
[32]
  TGI: > 51.4 µM
[33]
  TGI: 81.2 µM
[34]
  TGI: > 100 µM
[35]
  TGI: > 100 µM
[36]
  TGI: > 100 µM
[37]
  TGI: > 100 µM
[38]
  TGI: > 100 µM
[39]
  TGI: > 90.2 µM
[40]
  TGI: 36.9 µM
[41]
  TGI: > 100 µM
[42]
  TGI: > 100 µM
[43]
  TGI: > 100 µM
[44]
  TGI: > 100 µM
[45]
  TGI: > 95.4 µM
[46]
  TGI: > 100 µM
[47]
  TGI: 28.3 µM
[48]
  TGI: > 100 µM
[49]
  TGI: > 100 µM
[50]
  TGI: > 100 µM
[51]
  TGI: > 93.2 µM
[52]
  TGI: 29.5 µM
[53]
  TGI: > 100 µM
[54]
  TGI: > 88.6 µM
[55]
  TGI: > 100 µM
[56]
  TGI: > 100 µM
[57]
  TGI: 97.2 µM
[58]
  TGI: > 100 µM
[59]
  TGI: > 100 µM

## CC1=NN(c2nc(N)nc(C(C#N)C(=O)c3cc4c(cc3Cl)Sc3nccn3S4(=O)=O)n2)C(C)(C)C1 (stereo unspecified)
[1]
  TGI: 34 µM
[2]
  TGI: > 100 µM
[3]
  TGI: > 100 µM
[4]
  TGI: > 100 µM
[5]
  TGI: 98.6 µM
[6]
  TGI: > 100 µM
[7]
  TGI: 50.3 µM
[8]
  TGI: > 100 µM
[9]
  TGI: 94.4 µM
[10]
  TGI: > 100 µM
[11]
  TGI: 33.8 µM
[12]
  TGI: > 100 µM
[13]
  TGI: 67.3 µM
[14]
  TGI: 61.1 µM
[15]
  TGI: > 100 µM
[16]
  TGI: > 100 µM
[17]
  TGI: > 100 µM
[18]
  TGI: > 100 µM
[19]
  TGI: > 100 µM
[20]
  TGI: > 100 µM
[21]
  TGI: > 100 µM
[22]
  TGI: > 100 µM
[23]
  TGI: > 100 µM
[24]
  TGI: 48.5 µM
[25]
  TGI: > 100 µM
[26]
  TGI: 55 µM
[27]
  TGI: > 100 µM
[28]
  TGI: > 100 µM
[29]
  TGI: 68.2 µM
[30]
  TGI: 90 µM
[31]
  TGI: 37.2 µM
[32]
  TGI: > 100 µM
[33]
  TGI: 69.7 µM
[34]
  TGI: > 100 µM
[35]
  TGI: 57 µM
[36]
  TGI: > 100 µM
[37]
  TGI: > 100 µM
[38]
  TGI: > 100 µM
[39]
  TGI: > 100 µM
[40]
  TGI: 63.2 µM
[41]
  TGI: > 100 µM
[42]
  TGI: > 100 µM
[43]
  TGI: > 100 µM
[44]
  TGI: > 100 µM
[45]
  TGI: 53.7 µM
[46]
  TGI: > 100 µM
[47]
  TGI: 48.1 µM
[48]
  TGI: 51.4 µM
[49]
  TGI: > 100 µM
[50]
  TGI: > 100 µM
[51]
  TGI: > 100 µM
[52]
  TGI: 25 µM
[53]
  TGI: > 100 µM
[54]
  TGI: 77.9 µM
[55]
  TGI: > 100 µM
[56]
  TGI: > 100 µM
[57]
  TGI: 48.5 µM
[58]
  TGI: 66.9 µM
[59]
  TGI: 67.2 µM

## O=C(O)c1cc(C(=O)O)nc(C(=O)O)c1
[1]
  TGI: > 100 µM
[2]
  TGI: > 100 µM
[3]
  TGI: > 100 µM
[4]
  TGI: > 100 µM
[5]
  TGI: > 100 µM
[6]
  TGI: > 100 µM
[7]
  TGI: > 100 µM
[8]
  TGI: > 100 µM
[9]
  TGI: > 100 µM
[10]
  TGI: > 100 µM
[11]
  TGI: > 100 µM
[12]
  TGI: > 100 µM
[13]
  TGI: > 100 µM
[14]
  TGI: > 100 µM
[15]
  TGI: > 100 µM
[16]
  TGI: > 100 µM
[17]
  TGI: > 100 µM
[18]
  TGI: > 100 µM
[19]
  TGI: > 100 µM
[20]
  TGI: > 100 µM
[21]
  TGI: > 100 µM
[22]
  TGI: > 100 µM
[23]
  TGI: > 100 µM
[24]
  TGI: > 100 µM
[25]
  TGI: > 100 µM
[26]
  TGI: > 100 µM
[27]
  TGI: > 100 µM
[28]
  TGI: > 100 µM
[29]
  TGI: > 100 µM
[30]
  TGI: > 100 µM
[31]
  TGI: > 100 µM
[32]
  TGI: > 100 µM
[33]
  TGI: > 100 µM
[34]
  TGI: > 100 µM
[35]
  TGI: > 100 µM
[36]
  TGI: > 100 µM
[37]
  TGI: > 100 µM
[38]
  TGI: > 100 µM
[39]
  TGI: > 100 µM
[40]
  TGI: > 100 µM
[41]
  TGI: > 100 µM
[42]
  TGI: > 100 µM
[43]
  TGI: > 100 µM
[44]
  TGI: > 100 µM
[45]
  TGI: > 100 µM
[46]
  TGI: > 100 µM
[47]
  TGI: > 100 µM
[48]
  TGI: > 100 µM
[49]
  TGI: > 100 µM
[50]
  TGI: > 100 µM
[51]
  TGI: > 100 µM
[52]
  TGI: > 100 µM
[53]
  TGI: > 100 µM
[54]
  TGI: > 100 µM
[55]
  TGI: > 100 µM
[56]
  TGI: > 100 µM
[57]
  TGI: > 100 µM
[58]
  TGI: > 100 µM
[59]
  TGI: > 100 µM
